From US7569550B2, “14 and 15 membered ring compounds” (Glaxo Group Limited, priority 2003, dated 2009)
Where a name gives a salt, the structure may show the parent alone. Read-outs that look alike come from different tables or passages of the source.

Assays:
Test in all cases: MIC, standard broth dilution method in microtitre
Type in all cases: cell-based
[1] = system: E. faecalis ATCC 29212; conditions: Enterococcus faecalis, ATCC29212
Method: (§1) Using a standard broth dilution method in microtitre, compounds were tested for antibacterial activity. The compounds in the above examples gave minimum inhibitory concentrations (MICs) less than 1 microgram per millilitre against erythromycin-sensitive and erythromycin-resistant strains of Streptococcus pneumoniae and Streptococcus pyogenes.
(§2) In addition, the MIC (μg/ml) of test compounds against various organisms was determined including:
(§3) S. aureus Smith ATCC 13709, S. pneumoniae SP030, S. pyogenes 3565, E. faecalis ATCC 29212, H. influenzae ATCC 49247, M. catarrhalis ATCC 23246.

[2] = system: H. influenzae ATCC 49247; conditions: Haemophilus influenzae, ATCC49247
Method: as §1, §2, §3

[3] = system: M. catarrhalis ATCC 23246; conditions: Moraxella catarrhalis, ATCC23246
Method: as §1, §2, §3

[4] = system: S. aureus Smith ATCC 13709; conditions: Staphylococcus aureus, ATCC13709
Method: as §1, §2, §3

[5] = system: S. pneumoniae SP030; conditions: Streptococcus pneumoniae
Method: as §1, §2, §3

[6] = system: S. pyogenes 3565; conditions: Streptococcus pyogenes
Method: as §1, §2, §3

[7] = system: erythromycin resistant strains of Streptococcus pneumoniae
Method: as §1

[8] = system: erythromycin resistant strains of Streptococcus pyogenes
Method: as §1

[9] = H. influenzae ATCC 49247, read-out: MIC

Compound | MIC [1] | MIC [2] | MIC [3] | MIC [4] | MIC [5] | MIC [6] | MIC [7] | MIC [8] | MIC [2, 9]
CC[C@@H]1OC(=O)[C@H](C)[C@H](O[C@H]2C[C@](C)(OC)[C@@H](OCCN(C)CCNc3cc4c(cc3F)c(=O)c(C(=O)O)cn4C3CC3)[C@@H](C)O2)[C@@H](C)[C@H](O[C@H]2O[C@@H](C)C[C@@H](N(C)C)[C@H]2O)[C@](C)(OC)C[C@H](C)C(=O)[C@H](C)[C@H]2OC(=O)O[C@@]12C [Example 1, 4″-O-(2-{[2-(3-Carboxy-1-cyclopropyl-6-fluoro-4-oxo-1,4-dihydro-quinolin-7-ylamino)-ethyl]-methylamino}-ethyl)-6-O-methyl-erythromycin A 11,12-carbonate bis trifluoroacetate] | ≤ 1 µg/mL | ≤ 4 µg/mL | ≤ 4 µg/mL | ≤ 1 µg/mL | ≤ 1 µg/mL | ≤ 1 µg/mL | ≤ 1 µg/mL | ≤ 1 µg/mL | –
CC[C@@H]1OC(=O)[C@H](C)[C@H](O[C@@H]2C[C@](C)(OC)[C@H](OCCCN(C)CCNc3cc4c(cc3F)c(=O)c(C(=O)O)cn4C3CC3)[C@H](C)O2)[C@@H](C)[C@H](O[C@H]2O[C@@H](C)C[C@@H](N(C)C)[C@H]2O)[C@](C)(OC)C[C@H](C)C(=O)[C@H](C)[C@H]2OC(=O)O[C@@]12C [Example 2, 4″-O-(3-{[2-(3-Carboxy-1-cyclopropyl-6-fluoro-4-oxo-1,4-dihydro-quinolin-7-ylamino)ethyl]-methylamino}-propyl)-6-O-methyl-erythromycin A 11,12-carbonate] | ≤ 1 µg/mL | – | ≤ 4 µg/mL | ≤ 1 µg/mL | ≤ 1 µg/mL | ≤ 1 µg/mL | ≤ 1 µg/mL | ≤ 1 µg/mL | ≤ 4 µg/mL
CC[C@@H]1OC(=O)[C@H](C)[C@H](O[C@@H]2C[C@](C)(OC)[C@H](OCCCNCCSc3ccc4c(c3)c(=O)c(C(=O)O)cn4CC)[C@H](C)O2)[C@@H](C)[C@H](O[C@H]2O[C@@H](C)C[C@@H](N(C)C)[C@H]2O)[C@](C)(OC)C[C@H](C)C(=O)[C@H](C)[C@H]2OC(=O)O[C@@]12C [Example 4, 4″-O-{3-[2-(3-Carboxy-1-ethyl-4-oxo-1,4-dihydro-quinolin-6-ylsulfanyl)-ethylamino]-propyl}-6-O-methyl-erythromycin A 11,12-carbonate bisformate] | – | – | ≤ 4 µg/mL | – | – | – | ≤ 1 µg/mL | ≤ 1 µg/mL | ≤ 4 µg/mL
CC[C@@H]1OC(=O)[C@H](C)[C@H](O[C@@H]2C[C@](C)(OC)[C@H](OCCCNCCCc3ccc4c(c3)c(=O)c(C(=O)O)cn4CC)[C@H](C)O2)[C@@H](C)[C@H](O[C@H]2O[C@@H](C)C[C@@H](N(C)C)[C@H]2O)[C@](C)(OC)C[C@H](C)C(=O)[C@H](C)[C@H](O)[C@@]1(C)O [Example 5, 4″-O-{3-[3-(3-Carboxy-1-ethyl-4-oxo-1,4-dihydro-quinolin-6-yl)-propylamino]-propyl}-6-O-methyl-erythromycin A bisformate] | ≤ 1 µg/mL | – | – | ≤ 1 µg/mL | ≤ 1 µg/mL | ≤ 1 µg/mL | – | – | –
CC[C@@H]1OC(=O)[C@H](C)[C@H](O[C@@H]2C[C@](C)(OC)[C@H](OCCCNCCOc3cc4c5c(c3)c(=O)c(C(=O)O)cn5CCC4)[C@H](C)O2)[C@@H](C)[C@H](O[C@H]2O[C@@H](C)C[C@@H](N(C)C)[C@H]2O)[C@](C)(OC)C[C@H](C)C(=O)[C@H](C)[C@H]2OC(=O)O[C@@]12C [Example 6, 4″-O-{3-[2-(2-Carboxy-1-oxo-6,7-dihydro-1H,5H-pyrido[3,2,1-ij]quinoline-9-yloxy)-ethylamino]-propyl}-6-O-methyl-erythromycin A 11,12-carbonate bisformate] | ≤ 1 µg/mL | – | ≤ 4 µg/mL | ≤ 1 µg/mL | ≤ 1 µg/mL | ≤ 1 µg/mL | ≤ 1 µg/mL | ≤ 1 µg/mL | ≤ 4 µg/mL
CC[C@@H]1OC(=O)[C@H](C)[C@H](O[C@@H]2C[C@](C)(OC)[C@H](OCCCNCCCc3ccc4c(c3)c(=O)c(C(=O)O)cn4CC)[C@H](C)O2)[C@@H](C)[C@H](O[C@H]2O[C@@H](C)C[C@@H](N(C)C)[C@H]2O)[C@](C)(OC)C[C@H](C)C(=O)[C@H](C)[C@H]2N(C)C(=O)O[C@@]12C [Example 7, 4″-O-{3-[2-(3-Carboxy-1-ethyl-4-oxo-1,4-dihydro-quinolin-6-yl)-propylamino]-propyl}-6-O-methyl-11-desoxy-11-(R)-methylamino-erythromycin A 11,12-carbamate formate] | ≤ 1 µg/mL | – | – | ≤ 1 µg/mL | ≤ 1 µg/mL | ≤ 1 µg/mL | ≤ 1 µg/mL | ≤ 1 µg/mL | –
CC[C@@H]1OC(=O)[C@H](C)[C@H](O[C@@H]2C[C@](C)(OC)[C@H](OCCCN(C)CCCc3ccc4c(c3)c(=O)c(C(=O)O)cn4CC)[C@H](C)O2)[C@@H](C)[C@H](O[C@H]2O[C@@H](C)C[C@@H](N(C)C)[C@H]2O)[C@](C)(OC)C[C@H](C)C(=O)[C@H](C)[C@H]2OC(=O)O[C@@]12C [Example 13, 4″-O-(3-{[3-(3-Carboxy-1-ethyl-4-oxo-1,4-dihydro-quinolin-6-yl)propyl]-methylamino}-propyl)-6-O-methyl-erythromycin A 11,12-carbonate formate] | ≤ 1 µg/mL | – | ≤ 4 µg/mL | ≤ 1 µg/mL | ≤ 1 µg/mL | ≤ 1 µg/mL | ≤ 1 µg/mL | ≤ 1 µg/mL | ≤ 4 µg/mL
CC[C@@H]1OC(=O)[C@H](C)[C@H](O[C@@H]2C[C@](C)(OC)[C@H](OCCCN(C)CCNc3cc4c(=O)c(C(=O)O)cn(C5CC5)c4cc3Cl)[C@H](C)O2)[C@@H](C)[C@H](O[C@H]2O[C@@H](C)C[C@@H](N(C)C)[C@H]2O)[C@](C)(OC)C[C@H](C)C(=O)[C@H](C)[C@H]2OC(=O)O[C@@]12C [Example 14, 4″-O-(3-{[2-(3-Carboxy-7-chloro-1-cyclopropyl-4-oxo-1,4-dihydro-quinolin-6-ylamino)ethyl]-methylamino}-propyl)-6-O-methyl-erythromycin A 11,12-carbonate] | – | – | ≤ 4 µg/mL | – | – | – | ≤ 1 µg/mL | ≤ 1 µg/mL | ≤ 4 µg/mL
CC[C@@H]1OC(=O)[C@H](C)[C@H](O[C@@H]2C[C@](C)(OC)[C@H](OCCCN(C)CCNc3nc4c(cc3F)c(=O)c(C(=O)O)cn4CC)[C@H](C)O2)[C@@H](C)[C@H](O[C@H]2O[C@@H](C)C[C@@H](N(C)C)[C@H]2O)[C@](C)(OC)C[C@H](C)C(=O)[C@H](C)[C@H]2OC(=O)O[C@@]12C [Example 15] | ≤ 1 µg/mL | – | ≤ 4 µg/mL | ≤ 1 µg/mL | ≤ 1 µg/mL | ≤ 1 µg/mL | ≤ 1 µg/mL | ≤ 1 µg/mL | ≤ 4 µg/mL
CC[C@@H]1OC(=O)[C@H](C)[C@H](O[C@@H]2C[C@](C)(OC)[C@H](OCCNCCCc3ccc4c(c3)c(=O)c(C(=O)O)cn4CC)[C@H](C)O2)[C@@H](C)[C@H](O[C@H]2O[C@@H](C)C[C@@H](N(C)C)[C@H]2O)[C@](C)(O)C[C@H](C)CN(C)[C@@H](C)[C@H]2OC(=O)O[C@@]12C [Example 16, 4″-O-{2-[3-(3-Carboxy-1-ethyl-4-oxo-1,4-dihydro-quinolin-6-yl)propylamino]ethyl}azithromycin 11,12-carbonate] | – | – | ≤ 4 µg/mL | – | – | – | – | – | ≤ 4 µg/mL
CC[C@H]1OC(=O)[C@H](C)[C@@H](O[C@H]2C[C@@](C)(OC)[C@@H](OCCCNCCOc3cc4c5c(c3)c(=O)c(C(=O)O)cn5CCC4)[C@H](C)O2)[C@H](C)[C@@H](O[C@@H]2O[C@H](C)CC(N(C)C)[C@H]2O)[C@](C)(OC)C[C@@H](C)C(=O)[C@@H](C)[C@H]2NC(=O)O[C@@]21C (stereo partly drawn) [Example 22, 4″-O-{3-[2-(2-Carboxy-1-oxo-6,7-dihydro-1H,5H-pyrido[3,2,1-ij]quinolin-9-yloxy)-ethylamino]-propyl}-6-O-methyl-11-desoxy-11-(R)-amino-erythromycin A 11,12-carbamate formate] | ≤ 1 µg/mL | – | – | ≤ 1 µg/mL | ≤ 1 µg/mL | ≤ 1 µg/mL | ≤ 1 µg/mL | ≤ 1 µg/mL | –
CC[C@H]1OC(=O)[C@H](C)[C@@H](O[C@H]2C[C@@](C)(OC)[C@@H](OCCCNCCCc3cc4c5c(c3)c(=O)c(C(=O)O)cn5CCC4)[C@H](C)O2)[C@H](C)[C@@H](O[C@@H]2O[C@H](C)C[C@H](N(C)C)[C@H]2O)[C@](C)(OC)C[C@@H](C)C(=O)[C@@H](C)[C@H]2NC(=O)O[C@@]21C [Example 25, 4″-O-{3-[3-(2-Carboxy-1-oxo-6,7-dihydro-1H,5H-pyrido[3,2,1-ij]quinolin-9-yl)-propylamino]-propyl}-6-O-methyl-11-desoxy-11-(R)-amino-erythromycin A 11,12-carbamate formate] | ≤ 1 µg/mL | – | – | ≤ 1 µg/mL | ≤ 1 µg/mL | ≤ 1 µg/mL | ≤ 1 µg/mL | ≤ 1 µg/mL | –
CCc1cc(C(=O)O)c(=O)n2ccc(NCCNCCCO[C@H]3[C@H](C)O[C@@H](O[C@H]4[C@H](C)[C@@H](O[C@@H]5O[C@H](C)C[C@H](N(C)C)[C@H]5O)[C@](C)(OC)C[C@@H](C)C(=O)[C@@H](C)[C@H]5NC(=O)O[C@]5(C)[C@@H](CC)OC(=O)[C@@H]4C)C[C@@]3(C)OC)cc12 [Example 26, 4″-O-{3-[2-(3-Carboxy-1-ethyl-4-oxo-4-H-quinolizin-7-ylamino)-ethylamino]-propyl}-6-O-methyl-11-desoxy-11-(R)-amino-erythromycin A 11,12-carbamate formate] | – | – | – | – | – | – | ≤ 1 µg/mL | ≤ 1 µg/mL | –
